# Data from patent US8329644B2, “Lantibiotic-based compounds having antimicrobial activity” (Novacta Biosystems Limited, priority 2007, dated 2012).
# Experiments:
# S. salivarius = experiment: MIC susceptibility testing, S. salivarius; format: cell-based; conditions: S. salivarius GRL05064; Viridans streptococci; Table 3
# Method: (§1) Susceptibility testing for all aerobic organisms with the exception of Streptococcus pneumoniae was performed by two-fold serial antibiotic dilutions in Mueller-Hinton Broth supplemented with 50 μg/ml Ca^2+ unless otherwise noted. Susceptibility testing for S. pneumoniae was performed by two-fold serial antibiotic dilutions in Brain-Heart-Infusion Broth supplemented with 50 μg/ml Ca^2+ unless otherwise noted. Actively growing broth cultures were diluted to contain […] by adjusting to an OD600 of 0.2-0.3. They were then diluted a further 1:100 in fresh sterile broth. The assays were performed in duplicate in sterile 96-well microtitre plates in a total volume of 200 μl (160 μl broth, 20 μl antimicrobial agent, 20 μl inoculum) in a concentration range from 64 μg/ml to 0.06 μg/ml. […] Clinical isolates of Clostridium difficile were tested in Wilkins-Chalgren Anaerobe Agar under anaerobic conditions. In all cases, vancomycin was used as a reference antibiotic
# Bacteroides fragilis = experiment: MIC against intestinal flora organisms, Bacteroides fragilis; format: cell-based; conditions: Bacteroides fragilis NCTC 9343; Table 5
# Clostridium difficile = experiment: MIC, Clostridium difficile in Wilkins-Chalgren Anaerobe Agar; format: cell-based; conditions: Table 4
# Method: as §1
# S. pneumoniae = experiment: MIC susceptibility testing, S. pneumoniae (Brain-Heart-Infusion Broth); format: cell-based, Streptococcus pneumoniae; conditions: S. pneumoniae R6; Table 2
# Method: as §1
# M. luteus = experiment: MIC susceptibility testing, M. luteus; format: cell-based; conditions: M. luteus 4698; Table 2
# Method: as §1
# [1] = Stability in simulated gastric fluid (SGF); format: in vitro ADME; conditions: 37° C., analytical HPLC
# Method: Nisin, mersacidin, compound I and compound III were tested for their susceptibility towards enzymatic digestion in the stomach. Nisin, mersacidin and compound III were tested for their susceptibility towards enzymatic digestion in the intestine. The SGF and SIF were based on the standard USP solutions for simulated gastric and simulated intestinal fluids and their activity confirmed against Bovine Serum Albumin (Hilger et al, Clin. Exp. Immunol. 2001, 123, 387-94). The compounds were incubated in SGF or SIF at 37° C. and their concentrations quantified by analytical HPLC (UV detection at 210 nm). The potential degradation of each compound was also monitored qualitatively by measuring in vitro antibacterial activity against Micrococcus luteus.
# [2] = system: Bacteroides thetaiotaomicron; experiment: MIC against intestinal flora organisms, Bacteroides thetaiotaomicron; format: cell-based; conditions: Bacteroides thetaiotaomicron NCTC 10582; Table 5
smiles,measurement,setting,value
"CCC(C)[C@@H]1NC(=O)[C@H](C(C)C)NC(=O)[C@H]2NC(=O)CNC(=O)[C@@H]3CS[C@@H](C)[C@@H](NC(=O)[C@H]4CSC[C@H](N)C(=O)N[C@@H](CO)C(=O)NCC(=O)N[C@@H](Cc5c[nH]c6ccccc56)C(=O)N[C@@H](C(C)C)C(=O)N4)C(=O)N[C@@H](CC(C)C)C(=O)N[C@@H](C(=O)N[C@@H](C(C)CC)C(=O)N[C@@H](CCC(=O)O)C(=O)N3)[C@H](C)SC[C@H](NC1=O)C(=O)N[C@@H](C)C(=O)N[C@H](C(=O)NCCO)C[S+]([O-])[C@H]2C (stereo partly drawn) [Compound III, Actagardine N-[2-ethanolamine]monocarboxamide]",MIC,S. salivarius,1 µg/mL
same,Minimal Inhibitory Concentration (MIC),Bacteroides fragilis,>64 µg/mL
same,MIC,Clostridium difficile; C. difficile 027C,1 µg/mL
same,MIC,Clostridium difficile; C. difficile 027SM,1 µg/mL
same,MIC,Clostridium difficile; C. difficile 19126,2 µg/mL
same,MIC,Clostridium difficile; C. difficile 37779,2 µg/mL
same,MIC,Clostridium difficile; C. difficile B32,2 µg/mL
same,MIC,Clostridium difficile; C. difficile E4,1 µg/mL
same,MIC,Clostridium difficile; C. difficile E16,2 µg/mL
same,MIC,Clostridium difficile; C. difficile E101,2 µg/mL
same,MIC,Clostridium difficile; C. difficile P24,2 µg/mL
same,MIC,Clostridium difficile; C. difficile P49,1 µg/mL
same,MIC,Clostridium difficile; C. difficile P59,1 µg/mL
same,MIC,Clostridium difficile; C. difficile P62,1 µg/mL
same,MIC,S. pneumoniae,4 µg/mL
same,MIC,M. luteus,1 µg/mL
same,degradation in Simulated Gastric Fluid,[1],did not show appreciable degradation
same,Minimal Inhibitory Concentration (MIC),[2],>64 µg/mL
